According to patent publication US20250059179A1, “Heterocyclic Compounds and Methods of Use” (AMGEN INC., priority 2021, published 2025):

Experiments:
[1] = target: GDP-bound KRAS protein (aa 1-169), containing both G12D and C118A amino acid substitutions (Homo sapiens, UniProt P01116, C118A/G12D); experiment: KRAS G12D Coupled Nucleotide Exchange Assay; type: biochemical; conditions: 2 h compound pre-incubation; SOS-mediated nucleotide exchange, cRAF AlphaScreen readout;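 further: IC50 obtained by fitting the AlphaScreen signal with a four-parameter logistic curve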
Chain of GDP-bound KRAS protein (aa 1-169), containing both G12D and C118A amino acid substitutions (P01116 1-169 isoform P01116-2 G12D/C118A): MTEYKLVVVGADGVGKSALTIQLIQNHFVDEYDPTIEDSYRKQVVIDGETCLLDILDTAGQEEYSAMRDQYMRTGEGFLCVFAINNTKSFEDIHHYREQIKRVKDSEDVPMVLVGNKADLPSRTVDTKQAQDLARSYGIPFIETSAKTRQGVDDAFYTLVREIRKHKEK

[2] = target: His-tagged KRAS G12D protein (Homo sapiens, UniProt P01116, G12D); experiment: KRAS G12D TR-FRET Assay; type: binding; conditions: biotinylated KRPep-2d substrate, 10 μM GDP;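 further: europium anti-His antibody paired with streptavidin-d2 as FRET partners, initial 30 min incubation, then peptide 1 h and detection reagents 1 h, all at room temperature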
Chain of His-tagged KRAS G12D protein (P01116 1-188 isoform P01116-2 G12D): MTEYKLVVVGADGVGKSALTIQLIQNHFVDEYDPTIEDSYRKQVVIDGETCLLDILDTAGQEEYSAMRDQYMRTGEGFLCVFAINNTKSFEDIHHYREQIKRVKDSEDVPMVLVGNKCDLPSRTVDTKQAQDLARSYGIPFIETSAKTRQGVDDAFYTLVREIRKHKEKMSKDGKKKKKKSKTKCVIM

[3] = tested on: Phosphorylation of ERK1/2 in A-427 cells; experiment: Phospho-ERK1/2 MSD Assay; type: cell-based; conditions: Homo sapiens, A-427, 2 h, 2 h compound treatment, read-out: pERK (A427 cells) IC50
Description: A-427 (ATCC® HTB-53™) cells were cultured in RPMI 1640 Medium (ThermoFisher Scientific 11875093) containing 10% fetal bovine serum (ThermoFisher Scientific 16000044) and 1× penicillin-streptomycin-glutamine (ThermoFisher Scientific 10378016). Sixteen hours prior to compound treatment, A-427 cells were seeded in 96-well cell culture plates at a density of 25,000 cells/well and incubated at 37° C., 5% CO2. A compound dose-response titration was diluted in growth media, added to appropriate wells of a cell culture plate, and then incubated at 37° C., 5% CO2 for 2 h. Following compound treatment, cells were washed with ice-cold Dulbecco's phosphate-buffered saline, no Ca^2+ or Mg^2+ (ThermoFisher Scientific 14190144), and then lysed in RIPA buffer (50 mM Tris-HCl pH 7.5, 1% Igepal, 0.5% sodium deoxycholate, 150 mM NaCl, and 0.5% sodium dodecyl sulfate) containing protease inhibitors (Roche 4693132001) and phosphatase inhibitors (Roche 4906837001). Phosphorylation of ERK1/2 in compound-treated lysates was assayed using Phospho-ERK1/2 Whole Cell Lysate kits (Meso Scale Discovery K151DWD) according to the manufacturer's protocol. Assay plates were read on a Meso Scale Discovery Sector Imager 6000, and data were analyzed using a 4-parameter logistic model to calculate IC50 values.

| SMILES | Avg 2 h Coupled Exchange IC50 [1] [nM] | IC50 [2] [nM] | IC50 [3] [nM] |
| --- | --- | --- | --- |
| Nc1nc2c(-c3c(Cl)cc4c(N5[C@@H]6CNC[C@H]5COC6)nc(OC[C@]56CCCN5C[C@H](F)C6)nc4c3F)ccc(F)c2s1 [Example 124, 4-(4-((1R,5S)-3-oxa-7,9-diazabicyclo[3.3.1]nonan-9-yl)-6-chloro-8-fluoro-2-(((2R,7aR)-2-fluorotetrahydro-1H-pyrrolizin-7a(5H)-yl)methoxy)quinazolin-7-yl)-7-fluorobenzo[d]thiazol-2-amine] | 6 | 7 | 287 |
| CN1C[C@H](F)C[C@H]1COc1nc(N2[C@@H]3CNC[C@H]2COC3)c2cc(Cl)c(-c3ccc(F)c4sc(N)nc34)c(F)c2n1 [Example 125, 4-(4-((1R,5S)-3-oxa-7,9-diazabicyclo[3.3.1]nonan-9-yl)-6-chloro-8-fluoro-2-(((2S,4R)-4-fluoro-1-methylpyrrolidin-2-yl)methoxy)quinazolin-7-yl)-7-fluorobenzo[d]thiazol-2-amine] | 9 | 6 | 369 |
| Nc1nc2c(-c3c(Cl)cc4c(N5[C@@H]6CNC[C@H]5COC6)nc(OCC56CCCN5CC(F)(F)C6)nc4c3F)ccc(F)c2s1 (stereo partly drawn) [Example 126, 4-(4-((1R,5S)-3-oxa-7,9-diazabicyclo[3.3.1]nonan-9-yl)-6-chloro-2-((2,2-difluorotetrahydro-1H-pyrrolizin-7a(5H)-yl)methoxy)-8-fluoroquinazolin-7-yl)-7-fluorobenzo[d]thiazol-2-amine] | 10 | 12 | 896 |
| Nc1nc2c(-c3cc4nc(OC[C@@]56CCCN5C[C@H](F)C6)nc(N5C[C@H]6CC[C@@H](C5)N6)c4cc3F)ccc(F)c2s1 [Example 132, 4-(4-((1R,5S)-3,8-diazabicyclo[3.2.1]octan-3-yl)-6-fluoro-2-(((2R,7aS)-2-fluorotetrahydro-1H-pyrrolizin-7a(5H)-yl)methoxy)quinazolin-7-yl)-7-fluorobenzo[d]thiazol-2-amine] | 4 | 3 | 440 |
| Nc1nc2c(-c3ccc4c(N5C[C@H]6CC[C@@H](C5)N6)nc(OC[C@@]56CCCN5C[C@H](F)C6)nc4c3)ccc(F)c2s1 [Example 133, 4-(4-((1R,5S)-3,8-diazabicyclo[3.2.1]octan-3-yl)-2-(((2R,7aS)-2-fluorotetrahydro-1H-pyrrolizin-7a(5H)-yl)methoxy)quinazolin-7-yl)-7-fluorobenzo[d]thiazol-2-amine] | 6 | 74 | 4440 |
| Nc1nc2c(-c3ccc4c(N5[C@@H]6CC[C@H]5CNC6)nc(OC[C@@]56CCCN5C[C@H](F)C6)nc4c3)ccc(F)c2s1 [Example 135, 4-(4-((1R,5S)-3,8-diazabicyclo[3.2.1]octan-8-yl)-2-(((2R,7aS)-2-fluorotetrahydro-1H-pyrrolizin-7a(5H)-yl)methoxy)quinazolin-7-yl)-7-fluorobenzo[d]thiazol-2-amine] | 64 | 207 | > 10000 |
| Nc1nc2c(-c3c(Cl)cc4c(N5C[C@H]6CC[C@@H](C5)N6)nc(OC[C@]56CCCN5C[C@H](F)C6)nc4c3F)ccc(F)c2s1 [Example 136, 4-(4-((1R,5S)-3,8-diazabicyclo[3.2.1]octan-3-yl)-6-chloro-8-fluoro-2-(((2R,7aR)-2-fluorotetrahydro-1H-pyrrolizin-7a(5H)-yl)methoxy)quinazolin-7-yl)-7-fluorobenzo[d]thiazol-2-amine] | 1 | 1 | 33 |
| Nc1nc2c(-c3c(Cl)cc4c(N5C[C@H]6CC[C@@H](C5)N6)nc(OC[C@@]56CCCN5C[C@H](F)C6)nc4c3F)ccc(F)c2s1 [Example 137, 4-(4-((1R,5S)-3,8-diazabicyclo[3.2.1]octan-3-yl)-6-chloro-8-fluoro-2-(((2R,7aS)-2-fluorotetrahydro-1H-pyrrolizin-7a(5H)-yl)methoxy)quinazolin-7-yl)-7-fluorobenzo[d]thiazol-2-amine] | 2 | 3 | 8 |
| Nc1nc2c(-c3cc4nc(OC[C@@]56CCCN5C[C@H](F)C6)nc(N5[C@@H]6CC[C@H]5CNC6)c4cc3F)ccc(F)c2s1 [Example 138, 4-(4-((1R,5S)-3,8-diazabicyclo[3.2.1]octan-8-yl)-6-fluoro-2-(((2R,7aS)-2-fluorotetrahydro-1H-pyrrolizin-7a(5H)-yl)methoxy)quinazolin-7-yl)-7-fluorobenzo[d]thiazol-2-amine] | 11 | 30 | 1700 |
| CN1CCC[C@H]1COc1nc(C2=CCNCC2)c2cc(Cl)c(-c3cccc4sc(N)nc34)c(F)c2n1 [Example 144, 4-(6-chloro-8-fluoro-2-(((S)-1-methylpyrrolidin-2-yl)methoxy)-4-(1,2,3,6-tetrahydropyridin-4-yl)quinazolin-7-yl)benzo[d]thiazol-2-amine] | 37 | 79 | 2300 |
| CN1CCC[C@H]1COc1nc(C2=CCNC2)c2cc(Cl)c(-c3cccc4sc(N)nc34)c(F)c2n1 [Example 148, 4-(6-chloro-4-(2,5-dihydro-1H-pyrrol-3-yl)-8-fluoro-2-(((S)-1-methylpyrrolidin-2-yl)methoxy)quinazolin-7-yl)benzo[d]thiazol-2-amine] | 74 | 56 | 3410 |
| C=Cc1cc2c(N3CCNCC3)nc(OC[C@@H]3CCCN3C)nc2c(F)c1-c1cccc2sc(N)nc12 [Example 149, 4-(8-fluoro-2-(((S)-1-methylpyrrolidin-2-yl)methoxy)-4-(piperazin-1-yl)-6-vinylquinazolin-7-yl)benzo[d]thiazol-2-amine] | 25 | 121 | 6930 |
| C=Cc1cc2c(N3C[C@H]4CC[C@@H](C3)N4)nc(OC[C@@]34CCCN3C[C@H](F)C4)nc2c(F)c1-c1ccc(F)c2sc(N)nc12 [Example 150, 4-(4-((1R,5S)-3,8-diazabicyclo[3.2.1]octan-3-yl)-8-fluoro-2-(((2R,7aS)-2-fluorotetrahydro-1H-pyrrolizin-7a(5H)-yl)methoxy)-6-vinylquinazolin-7-yl)-7-fluorobenzo[d]thiazol-2-amine] | 6 | 3 | 11 |
| C=Cc1cc2c(N3[C@@H]4CC[C@H]3CNC4)nc(OC[C@@]34CCCN3C[C@H](F)C4)nc2c(F)c1-c1ccc(F)c2sc(N)nc12 [Example 151, 4-(4-((1R,5S)-3,8-diazabicyclo[3.2.1]octan-8-yl)-8-fluoro-2-(((2R,7aS)-2-fluorotetrahydro-1H-pyrrolizin-7a(5H)-yl)methoxy)-6-vinylquinazolin-7-yl)-7-fluorobenzo[d]thiazol-2-amine] | 5 | 5 | 33 |
| CCc1cc2c(N3CCNCC3)nc(OC[C@@H]3CCCN3C)nc2c(F)c1-c1cccc2sc(N)nc12 [Example 152, 4-(6-Ethyl-8-fluoro-2-(((S)-1-methylpyrrolidin-2-yl)methoxy)-4-(piperazin-1-yl)quinazolin-7-yl)benzo[d]thiazol-2-amine] | 95 | 217 | > 25000 |
| CCc1cc2c(N3C[C@H]4CC[C@@H](C3)N4)nc(OC[C@@]34CCCN3C[C@H](F)C4)nc2c(F)c1-c1ccc(F)c2sc(N)nc12 [Example 153, 4-(4-((1R,5S)-3,8-diazabicyclo[3.2.1]octan-3-yl)-6-ethyl-8-fluoro-2-(((2R,7aS)-2-fluorotetrahydro-1H-pyrrolizin-7a(5H)-yl)methoxy)quinazolin-7-yl)-7-fluorobenzo[d]thiazol-2-amine] | 6 | 4 | 11 |
| CCc1cc2c(N3[C@@H]4CC[C@H]3CNC4)nc(OC[C@@]34CCCN3C[C@H](F)C4)nc2c(F)c1-c1ccc(F)c2sc(N)nc12 [Example 154, 4-(4-((1R,5S)-3,8-diazabicyclo[3.2.1]octan-8-yl)-6-ethyl-8-fluoro-2-(((2R,7aS)-2-fluorotetrahydro-1H-pyrrolizin-7a(5H)-yl)methoxy)quinazolin-7-yl)-7-fluorobenzo[d]thiazol-2-amine] | 4 | 4 | 55 |
| CN1CCC[C@H]1COc1nc2c(F)c(-c3cccc4sc(N)nc34)c(Cl)cc2c(N2CCNCC2)c1C#N [Example 158, 7-(2-aminobenzo[d]thiazol-4-yl)-6-chloro-8-fluoro-2-(((S)-1-methylpyrrolidin-2-yl)methoxy)-4-(piperazin-1-yl)quinoline-3-carbonitrile] | 87 | 414 | 3290 |
